Assay results: PMC2556223 (Journal of biomolecular screening, 2008)

Assays:
CDV-752 = test: Dose-response CPE assay, Vero-dogSLAM cells; format: cell-based, canine distemper virus; conditions: Vero-dogSLAM cells, highest concentration assessed 37.5 μM; for EC50: read-out: EC50 (CDV-752)
MV-Ibd = test: Dose-response CPE assay against AS-48-resistant MV strain; conditions: strain naturally resistant to MV fusion inhibitor AS-48; highest concentration assessed 37.5 μM
HPIV3 = test: Dose-response CPE assay, Vero cells; format: cell-based, human parainfluenzavirus type 3; conditions: Vero cells, highest concentration assessed 37.5 μM; for EC50: read-out: EC50 (HPIV3)
MV-AII-5 = test: Dose-response CPE assay against AS-136A-adapted MV variant; conditions: read-out: EC50 (MV-AII-5); MV-Alaska variant adapted to grow in presence of RdRp inhibitor AS-136A; highest concentration assessed 37.5 μM
cells = test: Quantitative cytotoxicity assay; format: cell-based; conditions: for CC50: 24 h, absence of virus, highest concentration assessed 150 μM, averages of two experiments; for SI (CC50/EC50): specificity index, CC50 / EC50 against MV-Alaska
MV-Alaska = test: Dose-response curves based on suppression of viral CPE; format: cell-based, measles virus; conditions: biotesting of chemically re-synthesized compound; data not shown

## CNC(=O)c1ccc(OCc2ccccc2)c(OC)c1 [compound 4265637]
CDV-752
  EC50: 6.7 ± 0.1 µM
MV-Ibd
  EC50 (MV-Ibd): no activity detected
HPIV3
  EC50 (HPIV3): no activity detected
MV-AII-5
  EC50: 4.7 ± 0.3 µM
cells
  CC50: > 150 µM
  SI (CC50/EC50): >50

## C=CCn1c(SCC(=O)N2CC(=O)Nc3ccccc32)nc2scc(-c3ccccc3)c2c1=O [compound 14743644]
CDV-752
  EC50 (CDV-752): no activity detected
HPIV3
  EC50 (HPIV3): no activity detected
MV-AII-5
  EC50: 4.6 ± 0.1 µM
cells
  CC50: ~150 µM
  SI (CC50/EC50): 56

## COc1ccc([N+](=O)[O-])cc1NC(=O)CCc1ccccc1 [compound 17416393]
CDV-752
  EC50: 12.9 ± 0.7 µM
MV-Ibd
  EC50 (MV-Ibd): no activity detected
HPIV3
  EC50 (HPIV3): no activity detected
MV-AII-5
  EC50: 2.9 ± 0.5 µM
cells
  CC50: > 150 µM
  SI (CC50/EC50): >100

## COc1cccc(CNC(=O)c2cc3oc4ccccc4c3n2C)c1OC [compound 4242806]
CDV-752
  EC50: 2.1 ± 0.1 µM
HPIV3
  EC50: 2000 ± 100 nM
MV-AII-5
  EC50: 2.1 ± 0.1 µM
cells
  CC50: 147 µM
  SI (CC50/EC50): 105

## C=CCN=c1scc(-c2ccccc2)n1/N=C/c1ccccn1 [compound 22406106]
cells
  CC50: 139 µM
  SI (CC50/EC50): 116

## C#CCn1c(S(=O)(=O)Cc2ccc(F)cc2)nc(-c2ccccc2)c1-c1ccccc1 [compound 17409378]
HPIV3
  EC50: 1700 ± 200 nM
MV-AII-5
  EC50: 1.4 ± 0.3 µM
cells
  CC50: 26 µM
  SI (CC50/EC50): 37

## Cn1c(C(=O)NCc2ccccc2)cc2oc3ccccc3c21 [compound 14735307]
CDV-752
  EC50 (CDV-752): no activity detected
HPIV3
  EC50 (HPIV3): no activity detected
MV-AII-5
  EC50: 5.4 ± 1.6 µM
cells
  CC50: > 150 µM

## CSc1cccc(NC(=O)Cn2cccc2)c1 [compound 4245209]
CDV-752
  EC50: 31.1 µM
MV-Ibd
  EC50 (MV-Ibd): no activity detected
HPIV3
  EC50 (HPIV3): no activity detected
MV-AII-5
  EC50: 14.3 ± 0.8 µM

## CC(=O)/C(C#N)=C1\NC(=O)C(Cc2ccc(C)c(C)c2)S1 (stereo not shown) [compound 14741996]
CDV-752
  EC50: 4.2 ± 0.1 µM
HPIV3
  EC50: 3900 ± 100 nM
MV-AII-5
  EC50: 7.7 ± 0.1 µM
cells
  CC50: > 150 µM
  SI (CC50/EC50): >47

## COc1cc(/C=C/C(=O)N2CCOCC2)ccc1OCc1ccccc1 [compound 22415419]
CDV-752
  EC50: 5 ± 0.2 µM
MV-Ibd
  EC50 (MV-Ibd): no activity detected
HPIV3
  EC50 (HPIV3): no activity detected
MV-AII-5
  EC50: 2.2 ± 0.3 µM
cells
  CC50: > 150 µM
  SI (CC50/EC50): >33

## CC(=O)Nc1ccc(-c2csc(NC(=O)C3CCN(S(=O)(=O)c4cccs4)CC3)n2)cc1 [compound 22410899]
CDV-752
  EC50 (CDV-752): no activity detected
HPIV3
  EC50 (HPIV3): no activity detected
MV-AII-5
  EC50: 3.8 ± 0.3 µM
cells
  CC50: > 150 µM
  SI (CC50/EC50): >39

## CC(=O)Nc1ccc(-c2csc(NC(=O)CCCc3cccs3)n2)cc1 [compound 22408576]
CDV-752
  EC50 (CDV-752): no activity detected
HPIV3
  EC50 (HPIV3): no activity detected
MV-AII-5
  EC50: 2 ± 0.1 µM
cells
  CC50: > 150 µM
  SI (CC50/EC50): >65

## O=C(/C=C/c1cccs1)Nc1cccc(NC(=O)/C=C/c2cccs2)n1 [compound 17433375]
CDV-752
  EC50 (CDV-752): no activity detected
HPIV3
  EC50 (HPIV3): no activity detected
MV-AII-5
  EC50: 3.2 ± 0.1 µM
cells
  CC50: 70 µM
  SI (CC50/EC50): 19

## Cc1ccc2[nH]c(=O)c(N3CCOCC3)c(-c3ccccc3)c2c1 [compound 4259333]
CDV-752
  EC50 (CDV-752): no activity detected
HPIV3
  EC50 (HPIV3): no activity detected
MV-AII-5
  EC50: 4.3 ± 0.3 µM
cells
  CC50: 118 µM
  SI (CC50/EC50): 36

## CS(=O)(=O)N1CCc2cc(-c3csc(NC(=O)Cc4ccccc4)n3)ccc21 [compound 14723513]
CDV-752
  EC50: 26.8 ± 8.7 µM
MV-Ibd
  EC50 (MV-Ibd): no activity detected
HPIV3
  EC50 (HPIV3): no activity detected
MV-AII-5
  EC50: 3.6 ± 0.2 µM
cells
  CC50: > 150 µM
  SI (CC50/EC50): >41

## CCN=c1scc(-c2ccccc2)n1/N=C/c1ccccn1 [compound 22406746]
CDV-752
  EC50: 2.3 ± 0.2 µM
HPIV3
  EC50: 2000 ± 100 nM
cells
  CC50: ~150 µM
  SI (CC50/EC50): 37

## COc1cc(/C=C/C(=O)NC(C)C)ccc1OCc1ccccc1 [compound 22415706]
CDV-752
  EC50: 12.9 µM
MV-Ibd
  EC50 (MV-Ibd): no activity detected
HPIV3
  EC50 (HPIV3): no activity detected
MV-AII-5
  EC50: 4.1 µM

## CSc1ccccc1NC(=O)Cn1c(-c2cscn2)nc2ccccc21 [compound 4261934]
CDV-752
  EC50 (CDV-752): no activity detected
HPIV3
  EC50 (HPIV3): no activity detected
MV-AII-5
  EC50: 3.9 ± 0.1 µM
cells
  CC50: > 150 µM
  SI (CC50/EC50): >63

## CCOC(=O)Cn1c(-c2nonc2NC(=O)c2ccccc2F)nc2ccccc21 [compound 7973070]
CDV-752
  EC50: 1 ± 0.1 µM
HPIV3
  EC50: 1900 ± 100 nM
MV-AII-5
  EC50: 2 ± 0.2 µM
cells
  CC50: ~150 µM
  SI (CC50/EC50): 375

## Cc1cccc2c(=O)cc(C)n(Cc3ccccc3)c12 [compound 22415156]
CDV-752
  EC50: 11 ± 0.1 µM
HPIV3
  EC50 (HPIV3): no activity detected
MV-AII-5
  EC50: 2.4 ± 0.2 µM
cells
  CC50: > 150 µM
  SI (CC50/EC50): >42

## O=C(Cc1cccs1)Nc1cc(SCCO)cc([N+](=O)[O-])c1 [compound 22402685]
CDV-752
  EC50: 2.1 ± 0.3 µM
MV-Ibd
  EC50 (MV-Ibd): no activity detected
HPIV3
  EC50 (HPIV3): no activity detected
MV-AII-5
  EC50: 1.6 ± 0.2 µM
cells
  CC50: > 150 µM
  SI (CC50/EC50): >79

## CS(=O)(=O)N1CCc2cc(-c3csc(NC(=O)Cc4cccs4)n3)ccc21 [compound 846635]
CDV-752
  EC50 (CDV-752): no activity detected
MV-Ibd
  EC50 (MV-Ibd): no activity detected
HPIV3
  EC50 (HPIV3): no activity detected
MV-AII-5
  EC50: 3.7 ± 0.1 µM
cells
  CC50: ~150 µM
  SI (CC50/EC50): 56

## CC1Cc2cc(-c3csc(NC(=O)Cc4cccs4)n3)ccc2N1S(C)(=O)=O (stereo not shown) [compound 852230]
CDV-752
  EC50 (CDV-752): no activity detected
MV-Ibd
  EC50 (MV-Ibd): no activity detected
HPIV3
  EC50 (HPIV3): no activity detected
MV-AII-5
  EC50: 4.5 ± 0.2 µM
cells
  CC50: ~150 µM
  SI (CC50/EC50): 46

## CSc1nnc2c3ccccc3n(CCc3ccccc3)c2n1 [compound 7976354]
CDV-752
  EC50: 0.9 ± 0.1 µM
HPIV3
  EC50: 3500 ± 100 nM
MV-AII-5
  EC50: 1 ± 0.1 µM
cells
  CC50: > 150 µM
  SI (CC50/EC50): >33

## CC(=O)Nc1ccc(Nc2cc(C)nc3c(-c4ccccc4)cnn23)cc1 [compound 17505573]
CDV-752
  EC50 (CDV-752): no activity detected
MV-Ibd
  EC50 (MV-Ibd): no activity detected
HPIV3
  EC50 (HPIV3): no activity detected
MV-AII-5
  EC50: 1.6 ± 0.1 µM
cells
  CC50: 54 µM
  SI (CC50/EC50): 14

## O=C(CSc1nc2ccccc2n1-c1ccccc1)Nc1ncc(Cl)cc1Cl [compound 22407466]
CDV-752
  EC50: 0.9 ± 0.1 µM
HPIV3
  EC50: 1000 ± 100 nM
cells
  CC50: > 150 µM
  SI (CC50/EC50): >71

## COc1ccc(-n2c(SC(C)C(=O)Nc3ncc(Cl)cc3Cl)nc3ccccc32)cc1 (stereo not shown) [compound 22407448]
MV-Alaska
  Activity of re-synthesized compound versus original library substance: essentially identical to the original substances stored in the library
HPIV3
  EC50: 200 ± 100 nM
MV-AII-5
  EC50: 0.1 µM
cells
  CC50: > 150 µM

## Cc1cccc(-n2c(SCC(=O)Nc3ncc(Cl)cc3Cl)nc3ccccc32)c1 [compound 22404943]
CDV-752
  EC50: 0.4 ± 0.1 µM
HPIV3
  EC50: 600 ± 100 nM
MV-AII-5
  EC50: 0.5 ± 0.1 µM
cells
  CC50: > 150 µM
  SI (CC50/EC50): >214

## CCN(CC)C(=O)N1c2ccccc2C=Cc2ccccc21 [compound 14740150]
CDV-752
  EC50: 1.9 ± 0.1 µM
HPIV3
  EC50: 3000 ± 100 nM
cells
  CC50: > 150 µM
  SI (CC50/EC50): >34
